From patent US5872124A, “Treatment of diseases of the central nervous system using uric acid as a scavenger of peroxynitrite” (Thomas Jefferson University, priority 1996, dated 1999)

Experiments:
[1] = system: experimental allergic encephalomyelitis (EAE), immunization-elicited; assay: Clinical severity of immunization-elicited EAE in SJL mice; format: in vivo
Excerpt: (§1) Induction of EAE in rats by adoptive transfer of MBP-specific T cells or in SJL or SWXJ-14 mice by immunization with MBP or PLP 139-151, a peptide derived from […] [8], results in variable disease. We have scored the clinical systems of EAE as tabulated below.
(§2) Severity scores and symptoms of Experimental Allergic
(§3) 1 piloerection, tail weakness
(§4) 3 hind limb weakness/paralysis
(§5) 4 hind and forelimb paralysis
SJL mice are immunized subcutaneously with pMBP in adjuvant to induce EAE, from which they often recover. Commencing ten days post-immunization, groups of mice (n=6) were treated once daily with 2 mg of either PTIO or carboxy-PTIO intraperitoneally and observed for clinical signs of EAE which were graded as detailed in Table 1. […] At 18 days […], NO determinations were performed in several mice from each group.

[2] = system: experimental allergic encephalomyelitis (EAE), PLP immunization; assay: Clinical severity of PLP-induced EAE in SWXJ-14 mice; format: in vivo; conditions: started 4-5 days after immunization with myelin antigens
Experimental: FIG. 2. Effect of daily administration of c-PTIO (carboxy-PTIO) on EAE in SWXJ-14 mice. EAE was induced in SWJX-14 mice by two subcutaneous immunizations (d.0 and d.7) of […] PLP in CFA over two injection sites. Mice (N=3) were treated beginning on day 5 post-immunization with 2 mg/mouse c-PTIO […] i.p. and was continued until day 16 post-immunization (day 0 being the day of first immunization). Mean severity scores were graded as detailed in Table 1.
FIG. 4. Effect of D609 on the development of EAE in SWXJ-14 mice. SWXJ-mice were immunized with PLP as detailed for FIG. 2. Mice (n=2) were treated i.p. with 1 mg/mouse D609 from day 5 through day 14 post-immunization. Mean severity scores were graded as detailed in Table 1.
FIG. 12. Effect of the administration of various doses of uric acid on EAE in SWXJ-14 mice. EAE was induced in SWXJ-14 mice by two subcutaneous immunizations (d.0 and 7) of […] PLP in CFA over two injection sites. Mice (n=5) were treated once daily, beginning on day 5 post-immunization, with the indicated doses of uric acid. Mean severity scores were graded as detailed in Table 1.
as §1, §2, §3, §4, §5
In FIG. 1, EAE was elicited in 11 week old female Lewis rats by the adoptive transfer of 20×10^6 cells of the MBP-specific line 5HGBP.G5 activated by stimulation with MBP and syngeneic APC 48 hours previously and NO levels measured 5 days after transfer. In SWXJ-14 mice, EAE was triggered by two subcutaneous immunizations (d.0 and 7) with 100 μg PLP in CFA over two injection sites, and NO levels measured 18 days later. Results expressed represent the mean values obtained from a minimum of 4 animals. Peak severity of the symptoms of EAE ranged from 2-3 for the rats and 4-5 for the mice. NO was semi-quantitated using spin trapping with DETC and EPR-spectroscopy as described previously.
Clinical symptoms manifest as an ascending paralysis approximately 13 days after immunization and the disease rapidly progresses to its fatal endpoint by day 16-20. […] NO levels in the brains and spinal cords of animals treated with a single daily dose of PTIO were semi-quantitated by spin trapping and EPR spectroscopy on day 17 after immunization, one day after treatment was terminated. […] We expect that the removal of NO by PTIO should not necessarily interfere with the induction of the response responsible for NO production and that as the supplied PTIO is used up NO levels should rapidly return to control values.
In contrast to SJL mice, SWX mice immunized with PLP undergo a progressive,often fatal form of EAE. Clinical symptoms manifest as an ascending paralysis approximately 13 days after immunization and the disease rapidly progresses to its fatal endpoint by days 16-20. […] We conclude that the amount of carboxy-PTIO we administered, especially considering the short in vivo half life of the compound, was only sufficient to delay the onset of the EAE in the SWXJ-14 mouse.
NO is not universally considered to be a molecule with significant in vivo toxicity and peroxynitrite is thought to be the more toxic molecule produced by activated inflammatory cells resulting from the interaction of NO and superoxide. We would henceforth expect that removal of NO would reduce peroxynitrite formation. To determine whether NO or peroxynitrite is more likely to be ultimately responsible for clinical disease in EAE we have performed a series of experiments using uric acid, a known scavenger of peroxynitrite, to treat EAE induced in SWXJ-14 mice by immunization with PLP.

[3] = system: experimental allergic encephalomyelitis (EAE), PLP immunization; assay: Survival of SWXJ-14 mice with EAE; format: in vivo
Experimental: FIG. 14. Comparison of the survival of SWXJ-14 mice with EAE treated with PTIO and uric acid. SWXJ-mice were immunized with PLP in CFA as described for FIG. 12 and treated once daily with a 2 mg dose of uric acid or PTIO i.p. from day 5 to day 13, followed by two daily doses on day 14 and three daily doses thereafterward.
To more directly compare the action of PTIO and uric acid in EAE we have administered each of these agents in parallel to PLP-immunized SWXJ-14 mice. In these experiments the mice were immunized with PLP and treated with increasing doses of PTIO or uric acid beginning at day 5 after immunization.

[4] = mice, within 4 hours [17]; cited from earlier work

CC1(C)N([O])C(c2ccccc2)=[N+]([O-])C1(C)C [PTIO, 2-phenyl-4,4,5,5-tetramethylimidazoline-1-oxyl-3-oxide]
Onset and severity of EAE (FIG. 7) ([1]; 2 mg once daily i.p. from day 10 post-immunization, n=6): delayed onset of disease and somewhat lessened severity by comparison with untreated animals
Clinical symptoms of EAE ([1]; SJL mice, i.p. administration): forestall the appearance of clinical symptoms of EAE
Clinical severity ([1]; SJL mouse - immunization EAE, severity score 1-5, Table 2): 0.8
Effectiveness when treatment is started after immunization [2]: effective when started 4-5 days after immunization with myelin antigens
Improvement in clinical signs of surviving mice (FIG. 14) ([3]; at termination of the experiment): a number were actually beginning to show some improvement in the clinical signs of their disease
Mice still alive (FIG. 14) ([3]; several days after day 18, 2 mg i.p. once daily day 5-13, two doses day 14, then three daily): 40%
Amount accounted for in excretions [4]: Approximately 75%
